Results as given in patent US10899793B2, “Melanocortin ligands and methods of use thereof” (priority 2016, dated 2021).
Like-named read-outs stand apart in the source and are kept apart here. Square brackets hold non-standard residues; d marks the D form. Peptide text beside a SMILES is read from it. dPhe(4-I) = N[C@H](Cc1ccc(I)cc1)C(=O)O; d2Nal = N[C@H](Cc1ccc2ccccc2c1)C(=O)O; Bta = N[C@@H](Cc1csc2ccccc12)C(=O)O; Tic = O=C(O)[C@@H]1Cc2ccccc2CN1; Nle = CCCC[C@H](N)C(=O)O

Key:
mMC3R [1] = target: T1, mMC3R (Mus musculus, UniProt P33033); assay: 125I-NDP-MSH competitive binding assay at mMC3R; parameters: expressed in transfected cells; details: for mMC3R (IC50) Fold Diff.: Table 3, vs Ac-His-DPhe-Arg-Trp-NH2, negative = more potent than control
T1 sequence (P33033 whole entry): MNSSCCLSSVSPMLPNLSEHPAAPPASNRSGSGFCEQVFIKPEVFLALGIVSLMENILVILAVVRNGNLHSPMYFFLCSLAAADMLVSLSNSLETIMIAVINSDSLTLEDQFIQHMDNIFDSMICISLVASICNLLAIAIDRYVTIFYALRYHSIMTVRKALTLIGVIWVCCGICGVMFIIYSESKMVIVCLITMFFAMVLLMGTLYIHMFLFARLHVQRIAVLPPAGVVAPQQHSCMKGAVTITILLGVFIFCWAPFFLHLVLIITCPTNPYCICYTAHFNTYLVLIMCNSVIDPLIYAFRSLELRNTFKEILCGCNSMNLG
Procedure: A typical experiment utilized a 12-well format. […] Pharm. Des.
The plates were incubated at 37° C. with 5% CO2 for 1 hour. Post incubation, the media was aspirated, each well was washed with 500 μL assay media, and cells were lysed with 500 μL of 0.1 M NaOH and 500 μL of 1% Triton x-100.
Following a 10-15 minute room temperature incubation, the cell lysate mixture was transferred to 12×75 mm polystyrene tubes and the radioactivity was quantified using a WIZARD^2 Automatic Gamma Counter (Perkin-Elmer). […] GraphPad, Inc), and dose-response curves in addition to the corresponding IC50 values were calculated by a non-linear regression method. Each reported value represents the mean and standard error of the mean (SEM) of, at least, two independent experiments each containing two experimental replicates.
Note each reported value represents the mean and standard error of the mean (SEM) of at least two independent experiments containing two experimental replicates.

mMC4R [2] = target: T2, mMC4R (Mus musculus, UniProt P56450); assay: 125I-NDP-MSH competitive binding assay at mMC4R; details: Table 3; vs Ac-His-DPhe-Arg-Trp-NH2; negative = more potent than control
T2 sequence (P56450 whole entry): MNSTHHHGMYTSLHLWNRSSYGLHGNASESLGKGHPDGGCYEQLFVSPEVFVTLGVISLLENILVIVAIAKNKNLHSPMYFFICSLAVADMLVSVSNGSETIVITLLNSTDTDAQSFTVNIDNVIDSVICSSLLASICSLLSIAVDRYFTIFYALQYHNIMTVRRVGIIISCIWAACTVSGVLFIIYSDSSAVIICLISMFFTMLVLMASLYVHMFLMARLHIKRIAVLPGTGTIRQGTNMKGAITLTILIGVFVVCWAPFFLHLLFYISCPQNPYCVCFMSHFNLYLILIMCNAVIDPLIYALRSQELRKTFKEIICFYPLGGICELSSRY

mMC4R [3] = target: T2, mMC4R; assay: AlphaScreen cAMP agonist assay at mMC4R; details: for activation at 100 µM: read-out: mMC4R Agonist, percent of the NDP-MSH maximal positive control
mMC3R [4] = target: T1, mMC3R; details: Schild analysis; for mMC3R Antagonist pA2 ± SEM: Table 1, pA2 = -Log(Ki), Full Agonist = full dose-response, No Activity = no shift in EC50; for mMC3R pA2: Table 5
mMC4R [5] = target: T2, mMC4R; details: Schild analysis; for mMC4R pA2: Table 5
mMC3R [6] = target: T1, mMC3R; assay: AlphaScreen cAMP agonist assay at mMC3R
mMC5R = mMC5R (Mus musculus, UniProt P41149); assay: AlphaScreen cAMP agonist assay at mMC5R
Sequence of mMC5R (P41149 whole entry): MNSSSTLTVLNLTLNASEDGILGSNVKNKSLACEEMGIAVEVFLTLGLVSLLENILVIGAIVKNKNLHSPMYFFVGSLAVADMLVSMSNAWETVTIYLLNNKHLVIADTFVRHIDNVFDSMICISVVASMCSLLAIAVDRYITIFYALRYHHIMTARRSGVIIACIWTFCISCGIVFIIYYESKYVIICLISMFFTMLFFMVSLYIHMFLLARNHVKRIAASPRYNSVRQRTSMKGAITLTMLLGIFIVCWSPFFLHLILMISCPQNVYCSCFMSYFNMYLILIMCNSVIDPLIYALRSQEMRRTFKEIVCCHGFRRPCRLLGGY

mMC1R = mMC1R (Mus musculus, UniProt Q01727); assay: AlphaScreen cAMP agonist assay at mMC1R
Sequence of mMC1R (Q01727 whole entry): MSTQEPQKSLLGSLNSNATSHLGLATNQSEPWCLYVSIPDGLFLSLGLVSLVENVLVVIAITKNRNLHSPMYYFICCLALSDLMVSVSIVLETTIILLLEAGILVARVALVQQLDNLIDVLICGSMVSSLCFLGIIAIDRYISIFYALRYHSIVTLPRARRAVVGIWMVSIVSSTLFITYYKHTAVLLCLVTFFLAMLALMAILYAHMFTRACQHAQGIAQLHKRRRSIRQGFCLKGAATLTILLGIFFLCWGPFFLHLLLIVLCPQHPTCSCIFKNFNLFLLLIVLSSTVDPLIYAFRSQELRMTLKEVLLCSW

mMC4R [7] = target: T2, mMC4R; parameters: expressed in transfected cells; details: Joseph et al. 2003; read-out: reported stimulation potency at the mMC4R; cited from earlier work
mMC3R [8] = target: T1, mMC3R; parameters: expressed in transfected cells; details: Joseph et al. 2003; read-out: reported stimulation potency at the mMC3R; cited from earlier work

CC(=O)N[C@@H](CCCNC(=N)N)C(=O)N[C@@H](CCCNC(=N)N)C(=O)N[C@H](Cc1ccc(I)cc1)C(=O)N[C@@H](Cc1csc2ccccc12)C(N)=O [SKY4-48-10, Ac-Arg-Arg-(pI)DPhe-3Bal-NH2]
mMC3R (IC50) Fold Diff. (mMC3R [1]): -52
mMC4R (IC50) Fold Diff. (mMC4R [2]): 1
activation at 100 µM (mMC4R [3]): 24%
mMC3R Antagonist pA2 ± SEM (mMC3R [4]): Full Agonist

CC(=O)N[C@@H](Cc1c[nH]cn1)C(=O)N[C@@H](CCCNC(=N)N)C(=O)N[C@H](Cc1ccc(I)cc1)C(=O)N[C@@H](Cc1csc2ccccc12)C(N)=O [SKY4-48-11, Ac-His-Arg-(pI)DPhe-3Bal-NH2] (Ac-HR[dPhe(4-I)][Bta]-NH2)
mMC3R (IC50) Fold Diff. (mMC3R [1]): -15
mMC4R (IC50) Fold Diff. (mMC4R [2]): 2
activation at 100 µM (mMC4R [3]): 47%
mMC3R Antagonist pA2 ± SEM (mMC3R [4]): Full Agonist

CC(=O)N[C@@H](Cc1ccccc1)C(=O)N[C@@H](CCCNC(=N)N)C(=O)N[C@H](Cc1ccc(I)cc1)C(=O)N[C@@H](Cc1csc2ccccc12)C(N)=O [SKY4-48-15, Ac-Phe-Arg-(pI)DPhe-3Bal-NH2] (Ac-FR[dPhe(4-I)][Bta]-NH2)
fold improvement of binding IC50 at the mMC3R compared to SKY4-48-1 (mMC3R [1]): 9 fold
mMC3R (IC50) Fold Diff. (mMC3R [1]): -9
mMC4R (IC50) Fold Diff. (mMC4R [2]): 7
mMC3R Antagonist pA2 ± SEM (mMC3R [4]): Full Agonist

CC(=O)N[C@@H](Cc1ccccc1)C(=O)N[C@@H](CCCNC(=N)N)C(=O)N[C@H](Cc1ccc(I)cc1)C(=O)N1Cc2ccccc2C[C@H]1C(N)=O [SKY4-48-23, Ac-Phe-Arg-(pI)DPhe-Tic-NH2] (Ac-FR[dPhe(4-I)][Tic]-NH2)
mMC3R (IC50) Fold Diff. (mMC3R [1]): -20
mMC4R (IC50) Fold Diff. (mMC4R [2]): 1
mMC3R Antagonist pA2 ± SEM (mMC3R [4]): Full Agonist

CC(=O)N[C@@H](CCCNC(=N)N)C(=O)N[C@@H](CCCNC(=N)N)C(=O)N[C@H](Cc1ccc(I)cc1)C(=O)N[C@@H](Cc1ccccc1)C(N)=O [SKY4-48-26, Ac-Arg-Arg-(pI)DPhe-Phe-NH2]
mMC3R (IC50) Fold Diff. (mMC3R [1]): -8
mMC4R (IC50) Fold Diff. (mMC4R [2]): 4
mMC3R Antagonist pA2 ± SEM (mMC3R [4]): Full Agonist

CC(=O)N[C@H](Cc1c[nH]c2ccccc12)C(=O)N[C@H](CCCNC(=N)N)C(=O)N[C@@H](Cc1ccccc1)C(=O)N[C@H](Cc1c[nH]cn1)C(N)=O [SKY5-121, Ac-DTrp-DArg-Phe-DHis-NH2] (Ac-[dW][dR]F[dH]-NH2)
EC50 (mMC4R [3]): > 100 µM
mMC3R pA2 (mMC3R [4]): pA2 = No Activity
mMC4R pA2 (mMC4R [5]): pA2 = No Activity
EC50 (mMC3R [6]): > 100 µM
mMC5R percent of the NDP-MSH maximal positive control (mMC5R; Table 5, @ 100 μM): 29% @ 100 μM
EC50 (mMC1R): > 100 µM

CC(=O)N[C@@H](Cc1c[nH]cn1)C(=O)N[C@@H](CCCNC(=N)N)C(=O)N[C@H](Cc1ccccc1)C(=O)N[C@@H](Cc1c[nH]c2ccccc12)C(N)=O [SKY5-146-6, Ac-His-Arg-DPhe-Trp-NH2] (Ac-HR[dF]W-NH2)
EC50 (mMC4R [3]): > 100 µM
agonist activity at the mMC4R in words (mMC4R [3]; up to 100 μM): no agonist activity
mMC3R pA2 (mMC3R [4]): Full Agonist
mMC4R pA2 (mMC4R [5]): pA2 = No Activity
EC50 (mMC3R [6]): 21 µM
agonist activity at the mMC3R in words (mMC3R [6]; up to 100 μM): micromolar agonists
EC50 (mMC5R): 21 µM
agonist activity at the mMC5R in words (mMC5R; up to 100 μM): micromolar agonists
EC50 (mMC1R): 1.3 µM
agonist / inverse agonist activity at the mMC1R in words (mMC1R; up to 100 μM): micromolar agonists

CC(=O)N[C@H](Cc1ccc2ccccc2c1)C(=O)N[C@@H](CCCNC(=N)N)C(=O)N[C@H](Cc1ccc(I)cc1)C(=O)N1Cc2ccccc2C[C@H]1C(N)=O [SKY6-24-3, Ac-DNal(2′)-Arg-(pI)DPhe-Tic-NH2] (Ac-[d2Nal]R[dPhe(4-I)][Tic]-NH2)
IC50 (mMC3R [1]): 0.44 µM
fold improvement of binding IC50 at the mMC3R compared to SKY4-48-1 (mMC3R [1]): 120 fold
mMC3R (IC50) Fold Diff. (mMC3R [1]): -120
mMC4R (IC50) Fold Diff. (mMC4R [2]): -3
activation at 100 µM (mMC4R [3]): 32%
mMC3R Antagonist pA2 ± SEM (mMC3R [4]): Full Agonist

Ac-3Bal-Arg-(pI)DPhe-DNal(2′)-NH2 (Ac-[Bta]R[dPhe(4-I)][d2Nal]-NH2) [SKY4-48-45]
mMC4R Agonist, percent of the NDP-MSH maximal positive control (mMC4R [3]; Table 1, @ 100 μM): 38% @ 100 μM
mMC3R Antagonist pA2 ± SEM (mMC3R [4]): No Activity
mMC4R Antagonist pA2 ± SEM (mMC4R [5]; Table 1, pA2 = -Log(Ki)): No Activity
mMC3R Agonist, percent of the NDP-MSH maximal positive control (mMC3R [6]; Table 1, @ 100 μM): 34% @ 100 μM
percent of the NDP-MSH maximal positive control, Table 2 (mMC5R; Table 2, @ 100 μM): 41% @ 100 μM
mMC1R percent of the NDP-MSH maximal positive control (mMC1R; Table 2, @ 100 μM): 36% @ 100 μM

Ac-Ser-Tyr-Ser-Nle-Glu-His-Arg-Phe-Phe-Gly-Lys-Pro-Val-NH2 (Ac-SYS[Nle]EHRFFGKPV-NH2; SMILES CCCC[C@H](NC(=O)[C@H](CO)NC(=O)[C@H](Cc1ccc(O)cc1)NC(=O)[C@H](CO)NC(C)=O)C(=O)N[C@@H](CCC(=O)O)C(=O)N[C@@H](Cc1c[nH]cn1)C(=O)N[C@@H](CCCNC(=N)N)C(=O)N[C@@H](Cc1ccccc1)C(=O)N[C@@H](Cc1ccccc1)C(=O)NCC(=O)N[C@@H](CCCCN)C(=O)N1CCC[C@H]1C(=O)N[C@H](C(N)=O)C(C)C) [chimeric NDP-MSH/AGRP peptide]
EC50 (mMC4R [7]): 0.93 µM
EC50 (mMC3R [8]): 0.48 µM
